Measured values: patent US20150291598A1 (NOVARTIS AG, priority 2012, published 2015)

system: P. falciparum (NF54 or 3D7 strain); experiment: Assay for P. falciparum proliferation in infected human blood cells (SYBR Green); assay type: cell-based, Plasmodium falciparum; details: Plasmodium falciparum, Erythrocyte, 72 h, NF54 or 3D7 infected human erythrocytes, 72 hours; read-out: EC50 (nM), inhibitory efficacy in delaying P. falciparum proliferation in infected human blood cells
Experimental: Assay for P. falciparum Proliferation in Infected Human Blood Cells
Compounds of the invention can be assayed to measure their capacity to inhibit proliferation of P. falciparum parasitemia in infected red blood cells. This parasite proliferation assay measures the increase in parasite DNA content using a DNA intercalating dye, SYBR Green® (INVITROGEN®) which has a high affinity for double stranded DNA.
NF54 or 3D7 P. falciparum strain is grown in complete culturing media until parasitemia reaches 3% to 8% with O+ human erythrocytes. […] 20 μl of screening media is dispensed into 384 well assay plates. 50 nl of compounds of the invention (in DMSO), including antimalarial controls (mefloquine, pyrimethamine and artemisinin), are then transferred into the assay plates, as well as DMSO alone to serve as a negative control for inhibition. Then 30 μl of a suspension of a NF54 or 3D7 P. falciparum infected erythrocytes in screening media is dispensed into the assay plates such that the final hematocrit is 2.5% with a final parasitemia of 0.3%. The plates are placed in a 37° C. incubator for 72 hours in a low oxygen environment containing 93% N2, 4% CO2, and 3% O2 gas mixture. 10 μl of lysis buffer (saponin, triton-X, EDTA) containing a 10× solution of SYBR Green I® in RPMI media is dispensed into the plates. The plates are lidded and kept at room temperature overnight for the lysis of the infected red blood cells. The fluorescence intensity is measured (excitation […], emission 530 nm) using the Envision™ system (Perkin Elmer).

| EC50 [nM] | SMILES |
| --- | --- |
| 82 | CN(Cc1cn2c(-c3ccc4c(cnn4C)c3)cnc2cn1)c1ccc(C#N)cc1 [Compound 62, 4-[methyl({[3-(1-methyl-1H-indazol-5-yl)imidazo[1,2-a]pyrazin-6-yl]methyl})amino]benzonitrile] |
| 387 | CN(C(=O)c1cn2c(-c3ccc(C(F)(F)F)cc3)cnc2cn1)c1ccc(F)cn1 [Compound 63, N-(5-fluoropyridin-2-yl)-N-methyl-3-[4-(trifluoromethyl)phenyl]imidazo[1,2-a]pyrazine-6-carboxamide] |
| 354 | COc1ccc(-c2cnc3cnc(C(=O)N(C)c4ccc(C#N)cc4)cn23)c(F)c1 [Compound 65, N-(4-cyanophenyl)-3-(2-fluoro-4-methoxyphenyl)-N-methylimidazo[1,2-a]pyrazine-6-carboxamide] |
| 230 | CN(C(=O)c1cn2c(-c3ccc(Cl)cc3)cnc2cn1)c1ccc(Cl)cc1Cl [Compound 70, 3-(4-chlorophenyl)-N-(2,4-dichlorophenyl)-N-methylimidazo[1,2-a]pyrazine-6-carboxamide] |
| 1300 | CN(C(=O)c1cn2c(-c3ccc(Cl)c(F)c3)cnc2cn1)c1ccc(C#N)cc1 [Compound 71, 3-(4-chloro-3-fluorophenyl)-N-(4-cyanophenyl)-N-methylimidazo[1,2-a]pyrazine-6-carboxamide] |
| 439 | CN(C)CCN(C(=O)c1cn2c(-c3ccc(C(F)(F)F)cc3)cnc2cn1)c1ccc(C#N)cc1 [Compound 72, N-(4-cyanophenyl)-N-[2-(dimethylamino)ethyl]-3-[4-(trifluoromethyl)phenyl]imidazo[1,2-a]pyrazine-6-carboxamide] |
| 624 | CN(C(=O)c1cn2c(-c3ccc(C(F)(F)F)cc3)cnc2cn1)c1ccccc1Cl [Compound 73, N-(2-chlorophenyl)-N-methyl-3-[4-(trifluoromethyl)phenyl]imidazo[1,2-a]pyrazine-6-carboxamide] |
| 24 | CN(C(=O)c1cn2c(-c3ccc(-c4nnc(N)s4)cc3)cnc2cn1)c1ccc(C#N)cc1 [Compound 74, 3-[4-(5-amino-1,3,4-thiadiazol-2-yl)phenyl]-N-(4-cyanophenyl)-N-methylimidazo[1,2-a]pyrazine-6-carboxamide] |
| 37 | CN(C(=O)c1cn2c(-c3ccc(C(C)(F)F)cc3)cnc2cn1)c1ccc(C#N)cc1 [Compound 75, N-(4-cyanophenyl)-3-[4-(1,1-difluoroethyl)phenyl]-N-methylimidazo[1,2-a]pyrazine-6-carboxamide] |
| 116 | CN(C)c1ccc(-c2cnc3cnc(C(=O)N(C)c4ccc(C#N)cc4)cn23)cc1 [Compound 77, N-(4-cyanophenyl)-3-[4-(dimethylamino)phenyl]-N-methylimidazo[1,2-a]pyrazine-6-carboxamide] |
| 258 | Cc1ccc(-c2cnc3cnc(C(=O)N(C)c4ccc(Cl)nc4)cn23)cc1 [Compound 80, -(6-chloropyridin-3-yl)-N-methyl-3-(4-methylphenyl)imidazo[1,2-a]pyrazine-6-carboxamide] |
| 382 | CN(C(=O)c1cn2c(-c3ccc(Cl)cc3)cnc2cn1)c1ccc(Cl)nc1 [Compound 81, -(4-chlorophenyl)-N-(6-chloropyridin-3-yl)-N-methylimidazo[1,2-a]pyrazine-6-carboxamide] |
| 4300 | CN(C(=O)c1cn2c(-c3ccc(C(F)(F)F)cc3)cnc2cn1)c1cnc(Cl)cn1 [Compound 91, -(5-chloropyrazin-2-yl)-N-methyl-3-[4-(trifluoromethyl)phenyl]imidazo[1,2-a]pyrazine-6-carboxamide] |
| 349 | CC(C)N(C(=O)c1cn2c(-c3ccc(C(F)(F)F)cc3)cnc2cn1)c1ccc(C#N)cc1 [Compound 92, N-(4-cyanophenyl)-N-(propan-2-yl)-3-[4-(trifluoromethyl)phenyl]imidazo[1,2-a]pyrazine-6-carboxamide] |
| 4640 | CN(C(=O)c1cn2c(-c3ccc(C(F)(F)F)cc3)cnc2cn1)c1ncc(Cl)cn1 [Compound 93, N-(5-chloropyrimidin-2-yl)-N-methyl-3-[4-(trifluoromethyl)phenyl]imidazo[1,2-a]pyrazine-6-carboxamide] |
| > 10000 | CN(C(=O)c1cn2c(-c3ccc(C(F)(F)F)cc3)cnc2cn1)c1ccc(Cl)nn1 [Compound 94, N-(6-chloropyridazin-3-yl)-N-methyl-3-[4-(trifluoromethyl)phenyl]imidazo[1,2-a]pyrazine-6-carboxamide] |

More lines, now with the values behind:

| SMILES | EC50 [nM] |
| --- | --- |
| Cc1ccc(-c2cnc3cnc(C(=O)N(C)c4ccc(Cl)cc4Cl)cn23)cc1 [Compound 61, N-(2,4-dichlorophenyl)-N-methyl-3-(4-methylphenyl)imidazo[1,2-a]pyrazine-6-carboxamide] | 1370 |
| CN(Cc1cn2c(-c3ccc(OC(F)F)cc3)cnc2cn1)c1ccc(Cl)cc1 [Compound 64, 4-chloro-N-({3-[4-(difluoromethoxy)phenyl]imidazo[1,2-a]pyrazin-6-yl}methyl)-N-methylaniline] | 116 |
| CN(C(=O)c1cn2c(-c3ccc(C(F)(F)F)cc3)cnc2cn1)c1cncc(F)c1 [Compound 66, N-(5-fluoropyridin-3-yl)-N-methyl-3-[4-(trifluoromethyl)phenyl]imidazo[1,2-a]pyrazine-6-carboxamide] | 5000 |
| COc1ccc(-c2cnc3cnc(C(=O)N(C)c4ccc(C#N)cc4)cn23)cc1 [Compound 67, N-(4-cyanophenyl)-3-(4-methoxyphenyl)-N-methylimidazo[1,2-a]pyrazine-6-carboxamide] | 168 |
| CN(C(=O)c1cn2c(-c3ccc(C(F)(F)F)cc3)cnc2cn1)c1ccc(-c2nnn(C)n2)cc1 [Compound 68, N-methyl-N-[4-(2-methyl-2H-1,2,3,4-tetrazol-5-yl)phenyl]-3-[4-(trifluoromethyl)phenyl]imidazo[1,2-a]pyrazine-6-carboxamide] | > 10000 |
| COc1ccc(-c2cnc3cnc(C(=O)N(C)c4ccc(F)cc4)cn23)cc1 [Compound 69, N-(4-fluorophenyl)-3-(4-methoxyphenyl)-N-methylimidazo[1,2-a]pyrazine-6-carboxamide] | 85 |
| CN(C(=O)c1cn2c(-c3ccc(C(F)(F)F)cc3)cnc2cn1)c1ccc(Cl)nc1 [Compound 78, N-(6-chloropyridin-3-yl)-N-methyl-3-[4-(trifluoromethyl)phenyl]imidazo[1,2-a]pyrazine-6-carboxamide] | 181 |
| CN(C(=O)c1cn2c(-c3ccc(C(F)(F)F)cc3)cnc2cn1)c1ccc(F)nc1 [Compound 79, N-(6-fluoropyridin-3-yl)-N-methyl-3-[4-(trifluoromethyl)phenyl]imidazo[1,2-a]pyrazine-6-carboxamide] | 214 |
| CN(C(=O)c1cn2c(-c3ccc(N4CCCC4)nc3)cnc2cn1)c1ccc(C#N)cc1 [Compound 82, N-(4-cyanophenyl)-N-methyl-3-[6-(pyrrolidin-1-yl)pyridin-3-yl]imidazo[1,2-a]pyrazine-6-carboxamide] | 2340 |
| CN(C(=O)c1cn2c(-c3ccc4c(cnn4C)c3)cnc2cn1)c1ccc(C#N)cn1 [Compound 83, N-(5-cyanopyridin-2-yl)-N-methyl-3-(1-methyl-1H-indazol-5-yl)imidazo[1,2-a]pyrazine-6-carboxamide] | 1570 |
| CN(C(=O)c1cn2c(-c3ccc4c(ccn4C)c3)cnc2cn1)c1ccc(Cl)nc1 [Compound 84, N-(6-chloropyridin-3-yl)-N-methyl-3-(1-methyl-1H-indol-5-yl)imidazo[1,2-a]pyrazine-6-carboxamide] | 1280 |
| CN(C(=O)c1cn2c(-c3ccc(OC(F)F)cc3)cnc2cn1)c1ccc(C#N)cn1 [Compound 85, N-(5-cyanopyridin-2-yl)-3-[4-(difluoromethoxy)phenyl]-N-methylimidazo[1,2-a]pyrazine-6-carboxamide] | 1100 |
| CN(C(=O)c1cn2c(-c3ccc(C(F)(F)F)cc3)cnc2cn1)c1cccc(F)n1 [Compound 86, N-(6-fluoropyridin-2-yl)-N-methyl-3-[4-(trifluoromethyl)phenyl]imidazo[1,2-a]pyrazine-6-carboxamide] | 2010 |
| CN(C(=O)c1cn2c(-c3ccc(-n4cccn4)cc3)cnc2cn1)c1ccc(C#N)cc1 [Compound 87, N-(4-cyanophenyl)-N-methyl-3-[4-(1H-pyrazol-1-yl)phenyl]imidazo[1,2-a]pyrazine-6-carboxamide] | 104 |
| COc1ccc(N(C)C(=O)c2cn3c(-c4ccc(C(F)(F)F)cc4)cnc3cn2)cn1 [Compound 88, N-(6-methoxypyridin-3-yl)-N-methyl-3-[4-(trifluoromethyl)phenyl]imidazo[1,2-a]pyrazine-6-carboxamide] | 1740 |
| CN(C(=O)c1cn2c(-c3ccc(C(F)(F)F)cc3)cnc2cn1)c1ccc(C#N)cn1 [Compound 89, N-(5-cyanopyridin-2-yl)-N-methyl-3-[4-(trifluoromethyl)phenyl]imidazo[1,2-a]pyrazine-6-carboxamide] | 2070 |
| COc1ccc(-c2cnc3cnc(C(=O)N(C)c4ccc(C#N)cc4)cn23)cn1 [Compound 90, N-(4-cyanophenyl)-3-(6-methoxypyridin-3-yl)-N-methylimidazo[1,2-a]pyrazine-6-carboxamide] | 826 |

same assay, conditions: Plasmodium falciparum, Erythrocyte, infected human red blood cells; read-out: EC50, P. falciparum Proliferation Assay

| SMILES | EC50 [nM] |
| --- | --- |
| CN(C)CCN(C(=O)c1cn2c(-c3ccc(C(F)(F)F)cc3)cnc2cn1)c1ccc(C#N)cc1 [Compound 72, N-(4-cyanophenyl)-N-[2-(dimethylamino)ethyl]-3-[4-(trifluoromethyl)phenyl]imidazo[1,2-a]pyrazine-6-carboxamide] | < 50 |
